Data published in article PMC6680430, “Quantitative Prediction of Human Pharmacokinetics and Pharmacodynamics of CKD519, a Potent Inhibitor of Cholesteryl Ester Transfer Protein (CETP)” (Pharmaceutics, 2019).

Tests used:
[1] = animal full PK study in rats (NCA and PK model); format: in vivo; conditions: rat; for Tmax: median (range)
Experimental: Animal PK data for analysis were collected from preclinical studies performed at ChongKunDang laboratory. All animal experiments were performed with relevant guidelines and regulations, and the protocol was approved by the Institutional Animal Care and Use Committee (IACUC) of ChongKunDang (Approval number: S-13-015). A single dose of CKD519 was administered either orally or via intravenous infusion to hamsters (intravenous dose of 0.5 mg/kg, oral dose of 3, 15, or 45 mg/kg, n = 30); rats (intravenous dose of 0.5 mg/kg, oral dose of 5, 15, or 45 mg/kg, n = 20); and monkeys (intravenous dose of 0.1 mg/kg, oral dose of 1, 5, or 30 mg/kg, n = 16). The identical solution was administered to all animal species in the fasted state. Plasma CKD519 concentration was measured before and at 0.083, 0.25, 0.5, 1, 2, 4, 8, and 24 h after administration in hamsters and rats, and before and at 0.083, 0.25, 0.5, 1, 2, 4, 6, 8, 12, 24, 48, and 72 h after administration in monkeys. Two hamsters given identical doses were sampled in a rotating manner.
The plasma samples were stored at −70 °C before the analysis and were thawed at room temperature. […] A sensitive, specific, and validated liquid chromatography coupled with a tandem mass spectrometer (HPLC-MS/MS) assay was used for the determination of CKD519 concentration in animal plasma samples. A structural analogue of CKD519 was used as the internal standard. The validated working range was from 2 ng/mL (the lower limit of quantification, LLOQ) to 20,000 ng/mL. Quality control (QC) samples were analyzed together with the study samples. Intra-day and inter-day precision and accuracy results were within the acceptance criteria based on the Ministry of Food and Drug Safety (MFDS) guidelines. An exploratory data analysis was performed through non-compartmental analysis (NCA) using the NonCompart package (developed by Bae, version 0.4.4) in R (version 3.5.1, The R Foundation, Vienna, Austria).
Using the PK data from each species, nonlinear mixed-effect modeling was conducted using NONMEM (version 7.4, Icon Development Solutions, Ellicott City, MD, USA) reflecting the clues from NCA. The first-order conditional estimation method with interaction (FOCE-I) was used whenever applicable. The adequacy of the model was checked using changes in the objective function value (OFV), visual inspection of various diagnostic plots (goodness-of-fit (GOF) plot), and methods of visual predictive check (VPC) and bootstrap were used for the diagnostics on the model stability and parameter reliability. The significance of model improvement was evaluated using a likelihood-ratio test (LRT). In the nested models, the result was considered statistically significant if the OFV decreased more than 3.84 (p-value < 0.05, degree of freedom (df) = 1) and 5.99 (p-value < 0.05, df = 2). The degree of freedom is defined as the gap of the numbers of parameters of the two subsequent models that are being compared. In the case of non-nested models, the Akaike information criteria (AIC) value was used to select the model that best described the data. R (version 3.5.1., R Foundation for Statistical Computing, Vienna, Austria) was used for data preparation, NCA, graphical analysis, model diagnostics, and statistical summaries.
Initially, a two-compartment model with first-order absorption was developed to describe the biphasic curve, and several absorption structures (e.g., zero-order with absorption lag time, Weibull-type absorption) were applied to the base model if needed. The change in absolute bioavailability (F) by dose levels was also considered. […]

[2] = overall (interspecies) PK model with allometric relationships; format: in vivo, hamster, rat, monkey; conditions: for θ3 Coefficient for Vc: Vc = θ3 × WT^θ4 (θ4 fixed 1); for θ7 Coefficient for Vp: Vp = θ7 × WT^θ8 (θ8 fixed 1)
From the text: The volume parameters (Vc, Vp) estimated from the PK models for three different species were correlated through simple allometric scaling (=Body weight-dependent allometry) in the PK model fitted to the overall data from all species. This method is based on the power–law function, which can be represented as follows:Y = a × BW^b,(2) where Y represents the PK parameter of interest from each animal; BW represents the average body weight of each species from the relevant in vivo studies; and a and b are the allometric coefficient and exponent of the equation, respectively.
For the allometric scaling of the clearance parameters (CL, Q) in the same model, physiological parameters such as brain weight (BrW) or maximum lifespan potential (MLP) of each species were incorporated if necessary. To address the uncertainty, two allometric relationships were selected as the final models, and two sets of human PK parameters were predicted: one from the allometry of best fit and the other from the most conventional simple allometry. The appropriateness of the extrapolated human PK parameter values was assessed by comparing them with those of the comparator. Since allometric scaling is not generally recommended for the absorption parameter, human absorption parameters were determined by the final estimates from the overall PK model instead of the allometric method.
The final allometric relationship used in the overall PK model is as follows:Parameter value in each species = a × BW^b (for volume parameters, Vc and Vp),(9) Parameter value in each species = a × BW^b/BrW (for clearance parameters, CL and Q),(10) where BrW and BW represent the average brain weight and body weight of each species, respectively, and a and b are the coefficient and exponent of the allometric relationship, respectively.
The GOF plots of the final PK model are shown in Figure 3 The final parameter estimates from the overall PK model, and the precision of parameter estimates assessed by the bootstrap method are shown in Table 5.

[3] = PK model, final estimate (%RSE)
[4] = intravenous 0.5 mg/kg, NCA, mean ± SD
[5] = two-compartment PK model, final estimate (%RSE)
[6] = brain weight-corrected, estimate

In the case of `COc1cc(F)c(C(C)C)cc1C1=C(CN2C(=O)O[C@H](c3cc(C(F)(F)F)cc(C(F)(F)F)c3)[C@@H]2C)CC(C)(C)CC1` [CKD519], the “α (scale parameter of Weibull absorption)” value [1, 3] was 3.86 (3.94%), the “β (shape parameter of Weibull absorption)” value [1, 3] was 2.59 (4.59%) and the AUClast [1, 4] was 3940 ± 585 ng·h/mL. The “V/F * (V for intravenous)” value [1, 4] was 494 ± 126 mL, the ke [1, 4] was 0.0677 ± 0.0214 h⁻¹ and the t1/2 [1, 4] was 12.0 ± 2.98 h. The Tmax ([1]; intravenous 0.5 mg/kg, NCA) was 0.083 (0.083–0.083) h, the AUClast ([1]; oral 5 mg/kg, NCA, mean ± SD) was 6640 ± 932 ng·h/mL and the CL/F ([1]; oral 5 mg/kg, NCA, mean ± SD) was 188 ± 28.6 mL/h. The Cmax ([1]; oral 5 mg/kg, NCA, mean ± SD) was 893 ± 231 ng/mL, the V/F ([1]; oral 5 mg/kg, NCA, mean ± SD) was 2860 ± 1930 mL and the ke ([1]; oral 5 mg/kg, NCA, mean ± SD) was 0.0784 ± 0.0245 h⁻¹. For the same compound, the t1/2 ([1]; oral 5 mg/kg, NCA, mean ± SD) was 10.0 ± 4.78 h, the Tmax ([1]; oral 5 mg/kg, NCA) was 3 (3–4) h and the AUClast ([1]; oral 15 mg/kg, NCA, mean ± SD) was 11600 ± 3240 ng·h/mL. The CL/F ([1]; oral 15 mg/kg, NCA, mean ± SD) was 323 ± 82.8 mL/h, the Cmax ([1]; oral 15 mg/kg, NCA, mean ± SD) was 2040 ± 448 ng/mL and the V/F ([1]; oral 15 mg/kg, NCA, mean ± SD) was 4770 ± 1740 mL. For the same compound, the ke ([1]; oral 15 mg/kg, NCA, mean ± SD) was 0.0701 ± 0.0107 h⁻¹, the t1/2 ([1]; oral 15 mg/kg, NCA, mean ± SD) was 10.1 ± 1.82 h and the Tmax ([1]; oral 15 mg/kg, NCA) was 2 (2–4) h. For the same compound, the AUClast ([1]; oral 45 mg/kg, NCA, mean ± SD) was 12700 ± 1900 ng·h/mL, the CL/F ([1]; oral 45 mg/kg, NCA, mean ± SD) was 887 ± 140 mL/h and the V/F ([1]; oral 45 mg/kg, NCA, mean ± SD) was 10100 ± 1380 mL. The ke ([1]; oral 45 mg/kg, NCA, mean ± SD) was 0.0876 ± 0.00791 h⁻¹, the t1/2 ([1]; oral 45 mg/kg, NCA, mean ± SD) was 7.97 ± 0.782 h and the Tmax ([1]; oral 45 mg/kg, NCA) was 3 (2–5) h. The CL [1, 5] was 0.0326 (5.58%) L/h, the Q [1, 5] was 0.0404 (12.0%) L/h and the Vc [1, 5] was 0.0287 (6.41%) L. The Vp [1, 5] was 0.285 (8.21%) L, the “θ5 Coefficient for Q” value ([2]; brain weight-corrected, Q = θ5 × WT^θ6/BrW, estimate) was 0.846 and the “θ3 Coefficient for Vc” value [2, 6] was 0.0735. For the same compound, the “θ7 Coefficient for Vp” value [2, 6] was 0.813, the “α Scale parameter of WB” value [2, 6] was 4.51 and the “β Shape parameter of WB” value [2, 6] was 3.11. The “θ6 Exponent of Q” value [2, 6] was 2.04, the “ωCL Interindividual variability of CL” value [2, 6] was 25.9% and the “ωQ Interindividual variability of Q” value [2, 6] was 60.8%. The “ωα Interindividual variability of α” value [2, 6] was 27.0%, the “ωβ Interindividual variability of β” value [2, 6] was 24.0% and the “θ5 Coefficient for Q” value ([2]; simple allometry, Q = θ5 × WT^θ6, estimate) was 0.0549. For the same compound, the “θ3 Coefficient for Vc” value ([2]; simple allometry, estimate) was 0.0755, the “θ7 Coefficient for Vp” value ([2]; simple allometry, estimate) was 0.829 and the “α Scale parameter of WB” value ([2]; simple allometry, estimate) was 4.50. For the same compound, the “β Shape parameter of WB” value ([2]; simple allometry, estimate) was 3.01, the “θ6 Exponent of Q” value ([2]; simple allometry, estimate) was 0.670 and the “ωCL Interindividual variability of CL” value ([2]; simple allometry, estimate) was 42.8%. For the same compound, the “ωQ Interindividual variability of Q” value ([2]; simple allometry, estimate) was 23.9%, the “ωα Interindividual variability of α” value ([2]; simple allometry, estimate) was 27.1% and the “ωβ Interindividual variability of β” value ([2]; simple allometry, estimate) was 65.7%.
